Results taken from patent US6458758B1, “Compositions and methods utilizing nitroxides in combination with biocompatible macromolecules” (Synzyme Technologies, Inc., priority 1993, dated 2002).
Where two headings read alike, the source gives them in different places.

What was measured:
[1] = In vivo ESR of mouse tail after iv nitroxide-labelled HBOC plus ^15ND17-TEMPOL; details: 0.5 ml iv via cannula
Description: FIG. 7A is the ESR spectrum of the nitroxide signal recorded from the mouse tail approximately 10 minutes after intravenous infusion of 0.5 ml of the sample shown in FIG. 6. FIG. 7B is the time dependent (scan time 30 minutes) decrease in the center peak (Mo) signal intensity of FIG. 7A recorded at 10 times of the instrument sensitivity. FIG. 7C is a continuation of FIG. 7B at the end of its scan.
FIG. 8A is a series of 5 ESR spectrum recorded at 0.5 minute intervals, the magnetic field strength was increased by 2 Gauss in between each scan to display the decrease in signal intensity as a function of time. […]
The separation of the resonance peaks permits the simultaneous monitoring of free radical or enzyme mimic activities involving the small molecular weight nitroxide (TEMPOL) and its macromolecular conjugate in both in vitro and in vivo (murine) reactions. […] First, the approximate plasma half-life of a small molecular weight nitroxide (^15ND17-TEMPOL see FIG. 4C) and a large molecular weight 4-(2-bromoacetamido)-TEMPOL-labelled HBOC (see FIG. 4B) are determined by preparing a mixture of the two and adjusting the ESR signal intensity to be approximately the same (see FIG. 6). […] The mouse tail was inserted into an ESR cavity and the spectrum was recorded within 10 minutes after injection (see FIG. 7A). […]

[2] = system: Chinese Hamster V79 cells; experiment: Radioprotection of Chinese Hamster V79 cells at 12 Gray; type: cell-based; details: 12 Gray x-ray; cells pretreated 10 minutes prior to irradiation
[3] = system: leukocyte rolling and adhesion to endothelial cells; experiment: Cigarette smoke induced leukocyte rolling, adhesion and aggregate formation, dorsal skinfold chamber; type: in vivo, Syrian Golden hamsters
Source text: The interactions of leukocytes with endothelial cells and platelets are an indicator of the microcirculatory response to several adverse physiological conditions, ranging from localized and systemic ischemia/reperfusion injury, rejection of organ grafts, and the response to the organism to various oxidizing novae. See also Lehr et al., PNAS, […]. The mediator role of reactive oxygen species has been documented in many in vitro and in vivo models and, as a consequence, antioxidants and radical scavengers have been applied to counteract leukocyte activation, aggregation, and adhesion to endothelium and the subsequent microcirculatory dysfunction.

mice = details: cited from earlier work
[4] = Superoxide oxidase / dismutase activity of nitroxide-labelled hemoglobin on storage (ESR); type: biochemical
Source text: For example, an o-raffinose polymerized hemoglobin solution that has been labelled with 4-amino-TEMPO is stored in its oxygenated state in a sealed glass container (FIG. 1A). In such a state, the rate of superoxide anion and met-hemoglobin formation in solution is sufficiently rapid that the conversion of the nitroxide to its hydroxylamine derivatives may be conveniently monitored (See Equation [4] and compare FIGS. 1A and 1B). Equation 4 represents that the conversion of nitroxide to its diamagnetic hydroxyl derivative is coupled to the conversion of the superoxide anion back to molecular oxygen. […] (FIG. 1B). The nitroxide is considered to have performed a “superoxide oxidase”-like activity when it is converted to its hydroxylamine derivative in the presence of hemoglobin.
Knowing that under the experimental conditions described in FIGS. 1A and 1B the nitroxide is fully converted to hydroxylamine (See Equation [4]), the nitroxide may be regenerated by simply providing more superoxide anion as shown in Equation 5. […] This observation is consistent with the reconversion of the hydroxylamine derivative to nitroxide coupled with the formation of hydrogen peroxide from superoxide anion.

[5] = In vivo EPR of mouse skin: intradermal PNA and intravenous ^15N-TPL
Description: Thirty minutes later the spectrum in (C) was recorded.
The intensity of the low field ^15N-TPL peak is plotted against time. […].
FIGS. 42A and 42B show the pharmacokinetics of intravenous ^15N-TPL (1% v/w) measured at a patch of skin on the abdomen of the mouse.
A custom-built bridged loop-gap surface resonator, absorption microwave bridge was used for in vivo EPR spectroscopy at 1.25 GHz (L-band) in the mouse. […] The anesthetized mouse was placed in a ‘sandwich’ of two templates which allowed it to be placed on the loop-gap surface resonator, absorption microwave bridge in either the supine position, for spectroscopy of the back of the head, or in the prone position for spectroscopy of the abdomen. A tail vein cannula was used for intravenous injection of ^15N-TEMPOL; this injection site was remote from the resonator.
The spectrum was made 1 minute after ^15N-TPL was injected via the tail vein. […] FIG. 40B was recorded at approximately ⅕ of the instrument gain used in FIG. 40A in order to accommodate the ^15N-TPL signal.

[6] = EPR signal of ^15N-TEMPOL in isolated ischemic rat heart; details: 2 mM TPL
Description: The solid lines are double-exponential fittings to the observed intensity data. The half-lives are 0.4 minutes, 2.9 minutes (▪), and 3.3 minutes, 30.1 minutes (●) respectively.
Using methods essentially as described in Kuppusamy et al. Proc. Natl. Act. Sci., USA Vol. 91, pgs.
In an EPR imaging study, the rat heart was perfused with a solution containing nitroxide with or without polynitroxide albumin, followed by cessation of perfusate flow in order to create ischemia. […] It can be seen the signal intensity undergoes a biphasic decay and that the presence of polynitroxide albumin greatly slows the decay. By thus stabilizing the TEMPOL signal, polynitroxide albumin allows high-quality EPR images to be obtained over a prolonged period of time. Referring to FIGS. 22-23, a three-dimensional EPR image of the ischemic heart can still be obtained after 156 minutes of global ischemia. […] This illustrates that the presence of PNA allows much better imaging than is possible with TEMPOL alone, in terms both of resolution and signal persistence.
In FIG. 24, the intensity of the EPR signal is shown as a function of the duration of ischemia. In the lower curve, 2 mM of TEMPOL is infused into an ischemic heart. The upper curve traces the original intensity of 2 mM TEMPOL together with a polynitroxide albumin (4 g/dl of albumin at 42 moles of TEMPOL per mole of albumin). […]

C57 mice = experiment: 30-day survival of C57 mice after 10 Gray irradiation; type: in vivo; details: TPL 200 mg/kg ip, PNA 0.5 ml/mouse iv where given, 10 mice per group
[7] = Rat plasma TPL after intravenous injection (EPR spin density); type: in vivo; details: 100 mM solution, 10% v/v top load
Description: FIG. 14 is a plot showing time dependence of rat plasma concentrations of TPL after intravenous injections. Plasma samples were obtained from rats described in FIG. 13. TPL concentrations were determined from EPR spin density measurements.

in vivo = details: iv
C3H mice = details: cited from earlier work
conscious rats = experiment: Mean arterial pressure response in conscious rats
Source text: The rats were allowed to recover from surgery and anesthesia for approximately 7 days prior to study.
The rats were allowed to recover from surgery and anesthesia for approximately seven days prior to study.

[8] = Plasma levels of TPL with or without PNA in C57 mice (EPR); details: TPL 275 mg/kg ip alone

## [2H]C([2H])([2H])C1(C([2H])([2H])[2H])[15N]([O])C(C([2H])([2H])[2H])(C([2H])([2H])[2H])C([2H])([2H])C([2H])(O)C1([2H])[2H] [^15ND17-TEMPOL]
[1]
  time to disappearance of ESR signal after injection: ≤ 2.5 min

## CC1(C)CC(O)CC(C)(C)N1O [TPH]
[2]
  surviving fraction of V79 cells: 2%

## Hemoglobin-based oxygen carrier (HBOC), DBBF-Hb: purified hemoglobin cross-linked with bis(3,5 dibromosalicyl)fumarate
[3]; 15 MINUTES
  aggregate formation: 3.0 ± 1.7 /30 sec
  arteriolar sticking: 31.9 ± 26.4 /mm^2
  venular rolling: 7.9 ± 2.8%
  venular sticking: 66.0 ± 43.2 /mm^2
[3]; 60 MINUTES
  aggregate formation: 4.5 ± 2.6 /30 sec
  arteriolar rolling: 3.8 ± 2.9 /mm
  arteriolar sticking: 42.0 ± 32.1 /mm^2
  venular rolling: 9.2 ± 3.8%
  venular sticking: 101.5 ± 76.9 /mm^2
[3]; BASELINE
  aggregate formation: 0.3 ± 0.5 /30 sec
  arteriolar rolling: 0.3 /mm
  arteriolar sticking: 0.0 /mm^2
  venular rolling: 5.8 ± 1.2%
  venular sticking: 0.0 ± 0.0 /mm^2
[3]; cigarette smoke, compared with saline-treated controls
  leukocyte activation: no effect

## CC1(C)CCCC(C)(C)N1[O] [TEMPO, 2,2,6,6 tetramethylpiperidine-1-oxyl]
mice; mice, intraperitoneal
  LD50: 341 mg/kg
mice; mice
  maximum tolerated intraperitoneal dose: 275 mg/kg

## 4-amino-TEMPO labelled o-raffinose polymerized hemoglobin: o-raffinose polymerized hemoglobin labelled with 4-amino-TEMPO
[4]; 30 days of cold storage at 4° C.
  nitroxide signal after storage of sample diluted with equal volume of unlabelled hemoglobin: partially regenerated
[4]; oxygenated, sealed glass container, 30 days at 4° C.
  ESR resonance peaks after storage (conversion of nitroxide to hydroxylamine): complete disappearance of the resonance peaks

## CC1(C)CC(O)CC(C)(C)[15N]1[O] [^15N-TPL]
[5]; abdomen skin, absence of intradermal PNA
  local half-life in skin: 0.5 min
[5]; abdomen skin, after intradermal injection of 100 μl PNA
  time the increased ^15N-TPL signal was maintained: at least 30 minutes
[5]; absence of intradermal PNA
  decay of ^15N-TPL to ^15N-TPH: complete
[5]; measured at site of intradermal PNA injection on the back
  time to maximum ^15N-TPL signal after tail vein injection: less than 2 minutes
[5]; site of intradermal PNA injection, assuming complete distribution in total body water
  residual steady-state level as share of the initial ^15N-TPL concentration: 17%
[5]; skin on the back, in the presence of intradermal PNA
  time the ^15N-TPL signal remained stable: at least 30 minutes
mouse, 0.5 ml of 40 mM iv, no PNA
  plasma half-life (reduction to TPH): 2 min

## CC1(C)CC(O)CC(C)(C)N1[O] [TPL, 4-hydroxy-2,2,6,6-tetramethylpiperidine-1-oxyl]
[6]; read-out: half-life of EPR signal, first phase of double-exponential fit
  half-life at 2 mM: 0.4 min
[6]; read-out: half-life of EPR signal, second phase of double-exponential fit
  half-life at 2 mM: 2.9 min
C57 mice
  30-day survival: 10%
[7]
  half-life: < 1 min
Repeat iv injection of TEMPOL
  time to maximum peak intensity in mouse tail: approximately 10 seconds
In vivo; C57, mouse
  half-life: ~0.833 min
In vivo; mouse
  half-life: ~2 min
mice; C3H mice
  maximal tolerated dose administered intraperitoneally: 275 mg/kg
C3H mice; 275 mg/kg ip, 5-10 minutes after injection
  maximal TPL levels in whole blood: ~150 µg/mL
C3H mice; TPL 275 mg/kg ip 5-10 minutes before whole body radiation
  dose of radiation at which 50% of treated mice die within 30 days: 9.97 Gray
Conscious rats; 10% v/v top load, PNA 5 g/dl, TPL 100 mM
  vasodilatory effect: no significant vasodilatory effect
Conscious rats; conscious rats
  antihypertensive effect when injected alone with HBOC: no antihypertensive effect
[8]
  maximum plasma level of TPL relative to ~100 mg/kg ip in the presence of PNA: approximately one-fifth
